According to article PMC5218480 (PLoS ONE, 2017):

Test system: MV-4-11 cells
Test: Gene expression microarray analysis (Affymetrix PrimeView) and GSEA
Format: cell-based, human
Parameters: RFU PODN (11730768_x_at) / Fold change /veh PODN (11730768_x_at) / RFU LINC00158 (11744669_a_at) / Fold change /veh LINC00158 (11744669_a_at) / RFU DUSP10 (11751237_a_at) / Fold change /veh DUSP10 (11751237_a_at) / RFU ID3 (11757404_x_at) / Fold change /veh ID3 (11757404_x_at) / RFU PLEKHG5 (11737974_s_at) / Fold change /veh PLEKHG5 (11737974_s_at) / RFU LRRC4B (11730491_at) / Fold change /veh LRRC4B (11730491_at) / RFU GIMAP4 (11747438_a_at) / Fold change /veh GIMAP4 (11747438_a_at) / RFU KRT8 (11758183_x_at) / Fold change /veh KRT8 (11758183_x_at) / RFU CNN1 (11734310_a_at) / Fold change /veh CNN1 (11734310_a_at) / RFU VPS37D (11726825_at) / Fold change /veh VPS37D (11726825_at) / RFU C10orf10 (11716522_x_at) / Fold change /veh C10orf10 (11716522_x_at) / RFU KIR2DL2 /// KIR2DL4 /// KIR2DL5A /// KIR2DL5B /// KIR2DS1 /// KIR2DS2 /// KIR2DS3 /// KIR2DS4 /// KIR3DL3 /// KIR3DL3 /// KIR3DS1 (11738374_at) / Fold change /veh KIR2DL2 /// KIR2DL4 /// KIR2DL5A /// KIR2DL5B /// KIR2DS1 /// KIR2DS2 /// KIR2DS3 /// KIR2DS4 /// KIR3DL3 /// KIR3DL3 /// KIR3DS1 (11738374_at) / RFU C1QL1 (11718748_at) / Fold change /veh C1QL1 (11718748_at) / RFU TMPRSS4 (11747572_a_at) / Fold change /veh TMPRSS4 (11747572_a_at) / RFU HAMP (11756126_x_at) / Fold change /veh HAMP (11756126_x_at) / RFU RNFT2 (11725882_a_at) / Fold change /veh RNFT2 (11725882_a_at) / RFU NR4A2 (11747474_a_at) / Fold change /veh NR4A2 (11747474_a_at) / RFU ABCC12 (11746883_a_at) / Fold change /veh ABCC12 (11746883_a_at) / RFU TMEM136 (11760407_x_at) / Fold change /veh TMEM136 (11760407_x_at) / RFU CLDN22 /// WWC2 (11732394_at) / Fold change /veh CLDN22 /// WWC2 (11732394_at) / RFU HLA-DPB1 (11760878_x_at) / Fold change /veh HLA-DPB1 (11760878_x_at) / RFU SPINT1 (11716480_a_at) / Fold change /veh SPINT1 (11716480_a_at) / RFU GAP43 (11754022_s_at) / Fold change /veh GAP43 (11754022_s_at) / RFU A4GNT (11735810_at) / Fold change /veh A4GNT (11735810_at) / RFU PRB3 (11715151_x_at) / Fold change /veh PRB3 (11715151_x_at) / RFU TUBB4B (11761932_at) / Fold change /veh TUBB4B (11761932_at) / RFU CAPN14 (11732068_a_at) / Fold change /veh CAPN14 (11732068_a_at) / RFU TMCC2 (11721928_a_at) / Fold change /veh TMCC2 (11721928_a_at) / RFU IRGQ (11745062_a_at) / Fold change /veh IRGQ (11745062_a_at) / RFU FAM174B (11720279_a_at) / Fold change /veh FAM174B (11720279_a_at) / RFU TMPRSS4 (11748680_a_at) / Fold change /veh TMPRSS4 (11748680_a_at) / RFU FAM212B (11763350_a_at) / Fold change /veh FAM212B (11763350_a_at) / RFU PLEKHG5 (11743358_a_at) / Fold change /veh PLEKHG5 (11743358_a_at) / RFU ZSCAN30 (11745921_a_at) / Fold change /veh ZSCAN30 (11745921_a_at) / RFU CMKLR1 (11741424_a_at) / Fold change /veh CMKLR1 (11741424_a_at) / RFU LOC101060620 /// MAPK8IP1 (11723275_at) / Fold change /veh LOC101060620 /// MAPK8IP1 (11723275_at) / RFU SPTSSB (11747773_x_at) / Fold change /veh SPTSSB (11747773_x_at) / RFU PRSS12 (11739890_at) / Fold change /veh PRSS12 (11739890_at) / RFU BIN1 (11741810_x_at) / Fold change /veh BIN1 (11741810_x_at) / RFU WNT11 (11732464_a_at) / Fold change /veh WNT11 (11732464_a_at) / RFU C10orf10 (11716521_a_at) / Fold change /veh C10orf10 (11716521_a_at) / RFU C5orf56 (11738089_at) / Fold change /veh C5orf56 (11738089_at) / RFU CYB561 (11721691_x_at) / Fold change /veh CYB561 (11721691_x_at) / RFU ANKRD19P (11752326_a_at) / Fold change /veh ANKRD19P (11752326_a_at) / RFU OR2T12 /// OR2T33 /// OR2T8 (11738714_s_at) / Fold change /veh OR2T12 /// OR2T33 /// OR2T8 (11738714_s_at) / RFU VCAN (11748164_a_at) / Fold change /veh VCAN (11748164_a_at) / RFU JSRP1 (11732532_at) / Fold change /veh JSRP1 (11732532_at) / RFU KRTAP10-11 (11738290_x_at) / Fold change /veh KRTAP10-11 (11738290_x_at) / RFU MYO3A (11730013_a_at) / Fold change /veh MYO3A (11730013_a_at) / RFU EBF3 (11725865_a_at) / Fold change /veh EBF3 (11725865_a_at) / RFU CAMK2N1 (11719241_x_at) / Fold change /veh CAMK2N1 (11719241_x_at) / RFU C5orf56 (11738088_a_at) / Fold change /veh C5orf56 (11738088_a_at) / RFU OLFML3 (11715873_a_at) / Fold change /veh OLFML3 (11715873_a_at) / RFU LOC100653217 /// NTM (11731650_a_at) / Fold change /veh LOC100653217 /// NTM (11731650_a_at) / RFU MAPK11 (11762145_a_at) / Fold change /veh MAPK11 (11762145_a_at) / RFU FIZ1 (11724087_x_at) / Fold change /veh FIZ1 (11724087_x_at) / RFU OASL (11726364_x_at) / Fold change /veh OASL (11726364_x_at) / RFU SOX15 (11748057_x_at) / Fold change /veh SOX15 (11748057_x_at) / RFU CD79A (11719716_a_at) / Fold change /veh CD79A (11719716_a_at) / RFU HIST1H1D (11736915_at) / Fold change /veh HIST1H1D (11736915_at) / RFU CASKIN2 (11723855_a_at) / Fold change /veh CASKIN2 (11723855_a_at) / RFU LOC730098 (11760151_x_at) / Fold change /veh LOC730098 (11760151_x_at) / RFU OR4N2 (11742367_at) / Fold change /veh OR4N2 (11742367_at) / RFU PRRT2 (11749266_a_at) / Fold change /veh PRRT2 (11749266_a_at) / RFU SNX32 (11753110_a_at) / Fold change /veh SNX32 (11753110_a_at) / RFU CDHR5 (11726645_a_at) / Fold change /veh CDHR5 (11726645_a_at) / RFU RCAN1 (11760418_a_at) / Fold change /veh RCAN1 (11760418_a_at) / RFU FAM167A (11723789_a_at) / Fold change /veh FAM167A (11723789_a_at) / RFU FAM26E (11764081_at) / Fold change /veh FAM26E (11764081_at) / RFU ISYNA1 (11749810_s_at) / Fold change /veh ISYNA1 (11749810_s_at) / RFU ACY1 (11761880_at) / Fold change /veh ACY1 (11761880_at) / RFU 11764098_at / Fold change /veh 11764098_at / RFU SAMD14 (11745864_x_at) / Fold change /veh SAMD14 (11745864_x_at) / RFU NPB (11741838_a_at) / Fold change /veh NPB (11741838_a_at) / RFU TMPRSS6 (11731388_a_at) / Fold change /veh TMPRSS6 (11731388_a_at) / RFU KRTAP10-2 (11738614_at) / Fold change /veh KRTAP10-2 (11738614_at) / RFU ARHGAP8 /// PRR5-ARHGAP8 (11727945_x_at) / Fold change /veh ARHGAP8 /// PRR5-ARHGAP8 (11727945_x_at) / RFU KRTAP5-7 /// NADSYN1 (11734609_at) / Fold change /veh KRTAP5-7 /// NADSYN1 (11734609_at) / RFU RASL12 (11751679_a_at) / Fold change /veh RASL12 (11751679_a_at) / RFU CDKN2B (11736163_a_at) / Fold change /veh CDKN2B (11736163_a_at) / RFU PRF1 (11729649_at) / Fold change /veh PRF1 (11729649_at) / RFU, ZNF638 /// ZNF638-IT1 / Fold change vs veh, ZNF638 /// ZNF638-IT1 / RFU, PANK3 / Fold change vs veh, PANK3 / RFU, SH3YL1 / Fold change vs veh, SH3YL1 / RFU, ZEB2 / Fold change vs veh, ZEB2 / RFU, NRIP1 / Fold change vs veh, NRIP1 / RFU, PTTG1IP / Fold change vs veh, PTTG1IP / RFU, CAPN2 / Fold change vs veh, CAPN2 / RFU, MED14 / Fold change vs veh, MED14 / RFU, SNORA58 / Fold change vs veh, SNORA58 / RFU, C1orf63 / Fold change vs veh, C1orf63 / RFU, LRRFIP1 / Fold change vs veh, LRRFIP1 / RFU, NDUFAF7 / Fold change vs veh, NDUFAF7 / RFU, SLC12A2 / Fold change vs veh, SLC12A2 / RFU, IBTK / Fold change vs veh, IBTK / RFU, ESF1 / Fold change vs veh, ESF1 / Fold change vs veh, TMEM50B / RFU, TAOK1 / Fold change vs veh, TAOK1 / RFU, ACBD3 / Fold change vs veh, ACBD3 / RFU, TMA16 / Fold change vs veh, TMA16 / RFU, RWDD3 / Fold change vs veh, RWDD3 / RFU, BCAT1 / Fold change vs veh, BCAT1 / RFU, EDEM3 / Fold change vs veh, EDEM3 / RFU, TMEM33 / Fold change vs veh, TMEM33 / RFU, WDR75 / Fold change vs veh, WDR75 / RFU, AHCTF1 / Fold change vs veh, AHCTF1 / RFU, TFRC / Fold change vs veh, TFRC / RFU, ZDHHC17 / Fold change vs veh, ZDHHC17 / RFU, NOM1 / Fold change vs veh, NOM1 / RFU, ARL8B / Fold change vs veh, ARL8B / RFU, ZBTB11 / Fold change vs veh, ZBTB11 / RFU, TAMM41 / Fold change vs veh, TAMM41 / RFU, KIAA1704 /// LOC100996395 / Fold change vs veh, KIAA1704 /// LOC100996395 / RFU, ING1 / Fold change vs veh, ING1 / RFU, TRMT61B / Fold change vs veh, TRMT61B / RFU, FUBP3 / Fold change vs veh, FUBP3 / RFU, TP53 / Fold change vs veh, TP53 / RFU, TNKS2 / Fold change vs veh, TNKS2 / RFU, ZFP14 / Fold change vs veh, ZFP14 / RFU, ACTR2 / Fold change vs veh, ACTR2 / RFU, PPP3R1 / Fold change vs veh, PPP3R1 / RFU, PIK3R1 / Fold change vs veh, PIK3R1 / RFU, HNRNPA1 / Fold change vs veh, HNRNPA1 / RFU, RNF170 / Fold change vs veh, RNF170 / RFU, ZNF28 / Fold change vs veh, ZNF28 / RFU, RNGTT / Fold change vs veh, RNGTT / RFU, OGT / Fold change vs veh, OGT / RFU, BRD1 / Fold change vs veh, BRD1 / RFU, MARS / Fold change vs veh, MARS / RFU, ZNF655 / Fold change vs veh, ZNF655 / RFU, FAHD1 / Fold change vs veh, FAHD1 / RFU, BDP1 / Fold change vs veh, BDP1 / RFU, LRRCC1 / Fold change vs veh, LRRCC1 / RFU, ARID1A / Fold change vs veh, ARID1A / RFU, ZNF146 / Fold change vs veh, ZNF146 / RFU, ZNF330 / Fold change vs veh, ZNF330 / RFU, GPN3 / Fold change vs veh, GPN3 / RFU, C9orf123 / Fold change vs veh, C9orf123 / RFU, N4BP2L2 / Fold change vs veh, N4BP2L2 / RFU, ARFIP1 / Fold change vs veh, ARFIP1 / RFU, FAM179B / Fold change vs veh, FAM179B / RFU, BCL10 / Fold change vs veh, BCL10 / RFU, UHRF1BP1L / Fold change vs veh, UHRF1BP1L / RFU, BET1 / Fold change vs veh, BET1 / RFU, CNOT2 / Fold change vs veh, CNOT2 / RFU, ZNF268 / Fold change vs veh, ZNF268 / Fold change vs veh, ZNF507 / RFU, DGCR2 / Fold change vs veh, DGCR2 / RFU, WDSUB1 / Fold change vs veh, WDSUB1 / Fold change vs veh, HSP90B1 /// MIR3652 / RFU, ADSS / Fold change vs veh, ADSS / RFU, GK / Fold change vs veh, GK / RFU, ZNF148 / Fold change vs veh, ZNF148 / RFU, TAF9 / Fold change vs veh, TAF9 / RFU, SLC1A5 / Fold change vs veh, SLC1A5 / RFU, SLMO2 / Fold change vs veh, SLMO2 / RFU, ABCC4 / Fold change vs veh, ABCC4 / RFU, LOC101060439 /// RAP1B / Fold change vs veh, LOC101060439 /// RAP1B / RFU, RFX7 / Fold change vs veh, RFX7 / RFU, GTPBP10 / Fold change vs veh, GTPBP10 / RFU, CNEP1R1 / Fold change vs veh, CNEP1R1 / RFU, BIVM-ERCC5 /// ERCC5 / Fold change vs veh, BIVM-ERCC5 /// ERCC5 / RFU, ILF3 / Fold change vs veh, ILF3 / RFU 11762660_at / Fold change /veh 11762660_at / RFU VCAN (11757783_s_at) / Fold change /veh VCAN (11757783_s_at) / RFU DDX43 (11728927_at) / Fold change /veh DDX43 (11728927_at) / RFU KRT8 (11758188_x_at) / Fold change /veh KRT8 (11758188_x_at) / RFU NKD1 (11759106_at) / Fold change /veh NKD1 (11759106_at) / RFU SRD5A1 (11742802_a_at) / Fold change /veh SRD5A1 (11742802_a_at) / RFU TPSAB1 /// TPSB2 (11721975_s_at) / Fold change /veh TPSAB1 /// TPSB2 (11721975_s_at) / RFU GSTM3 (11746129_a_at) / Fold change /veh GSTM3 (11746129_a_at) / RFU IL23R (11737362_x_at) / Fold change /veh IL23R (11737362_x_at) / RFU TMEM51 (11727254_a_at) / Fold change /veh TMEM51 (11727254_a_at) / RFU PIWIL2 (11732686_x_at) / Fold change /veh PIWIL2 (11732686_x_at) / RFU ORM1 (11744905_x_at) / Fold change /veh ORM1 (11744905_x_at) / RFU CCDC152 (11743942_at) / Fold change /veh CCDC152 (11743942_at) / RFU ECM1 (11717891_a_at) / Fold change /veh ECM1 (11717891_a_at) / RFU IL23R (11748794_a_at) / Fold change /veh IL23R (11748794_a_at) / RFU TNFAIP8L3 (11732012_x_at) / Fold change /veh TNFAIP8L3 (11732012_x_at) / RFU MBOAT4 (11741988_at) / Fold change /veh MBOAT4 (11741988_at) / RFU 11764193_at / Fold change /veh 11764193_at / RFU TMEM53 (11763286_at) / Fold change /veh TMEM53 (11763286_at) / RFU MAGEB2 (11727129_at) / Fold change /veh MAGEB2 (11727129_at) / RFU TMEM200A (11744735_a_at) / Fold change /veh TMEM200A (11744735_a_at) / RFU CCDC152 (11751479_a_at) / Fold change /veh CCDC152 (11751479_a_at) / RFU FAM211A (11726209_a_at) / Fold change /veh FAM211A (11726209_a_at) / RFU RGS16 (11746705_a_at) / Fold change /veh RGS16 (11746705_a_at) / RFU VCAN (11755009_s_at) / Fold change /veh VCAN (11755009_s_at) / RFU RHOB (11743442_s_at) / Fold change /veh RHOB (11743442_s_at) / RFU RGS16 (11720943_a_at) / Fold change /veh RGS16 (11720943_a_at) / RFU RGS16 (11720944_at) / Fold change /veh RGS16 (11720944_at) / RFU, VPS4B / Fold change vs veh, VPS4B / RFU, CREB1 / Fold change vs veh, CREB1 / RFU, DNAJC13 / Fold change vs veh, DNAJC13 / RFU, GNAQ / Fold change vs veh, GNAQ / RFU, CDK5R1 / Fold change vs veh, CDK5R1 / RFU, ZRANB3 / Fold change vs veh, ZRANB3 / RFU, CUL4A / Fold change vs veh, CUL4A / RFU, CCNY / Fold change vs veh, CCNY / RFU, UFL1 / Fold change vs veh, UFL1 / RFU, COG3 / Fold change vs veh, COG3 / RFU, DIAPH2 / Fold change vs veh, DIAPH2 / RFU, SKA2 / Fold change vs veh, SKA2 / RFU, AFF3 / Fold change vs veh, AFF3 / RFU, LMF1 / Fold change vs veh, LMF1 / RFU, IPO11 / Fold change vs veh, IPO11 / RFU, DFFB / Fold change vs veh, DFFB / RFU, FOXP1 / Fold change vs veh, FOXP1 / RFU, CARD8 / Fold change vs veh, CARD8 / RFU, STRN3 / Fold change vs veh, STRN3 / RFU, ADK / Fold change vs veh, ADK / RFU, RASSF2 / Fold change vs veh, RASSF2 / RFU, WIPF1 / Fold change vs veh, WIPF1 / RFU, LARP1B / Fold change vs veh, LARP1B / RFU, RASA1 / Fold change vs veh, RASA1 / RFU, RB1 / Fold change vs veh, RB1 / RFU, PPFIA1 / Fold change vs veh, PPFIA1 / RFU, MAT2A / Fold change vs veh, MAT2A / RFU, CCT5 / Fold change vs veh, CCT5 / RFU, WDR92 / Fold change vs veh, WDR92 / RFU, CUX1 / Fold change vs veh, CUX1 / RFU, TTC7A / Fold change vs veh, TTC7A / RFU, TMEM135 / Fold change vs veh, TMEM135 / RFU, DEPTOR / Fold change vs veh, DEPTOR / RFU, CPM / Fold change vs veh, CPM / RFU, DNAJB6 / Fold change vs veh, DNAJB6 / RFU, CACNA2D3 / Fold change vs veh, CACNA2D3 / RFU, DTX4 / Fold change vs veh, DTX4 / RFU, TFCP2 / Fold change vs veh, TFCP2 / RFU, GMCL1 /// GMCL1P1 / Fold change vs veh, GMCL1 /// GMCL1P1 / RFU, AEBP2 / Fold change vs veh, AEBP2 / RFU, SNHG1 /// SNORD22 /// SNORD25 /// SNORD26 /// SNORD27 /// SNORD28 /// SNORD29 /// SNORD31 / Fold change vs veh, SNHG1 /// SNORD22 /// SNORD25 /// SNORD26 /// SNORD27 /// SNORD28 /// SNORD29 /// SNORD31 / Fold change (Aza/veh), C12orf56 (ProbeSet 11735607_a_at) / Fold change (ACY-1035/veh), C12orf56 (ProbeSet 11735607_a_at) / Fold change (Aza/veh), FGFR1OP (ProbeSet 11751329_s_at) / Fold change (ACY-1035/veh), FGFR1OP (ProbeSet 11751329_s_at) / Fold change (Aza/veh), VPS36 (ProbeSet 11739960_a_at) / Fold change (ACY-1035/veh), VPS36 (ProbeSet 11739960_a_at) / RFU SYPL1 (11715823_x_at) / Fold change /veh SYPL1 (11715823_x_at) / RFU IGFBP7 (11715501_s_at) / Fold change /veh IGFBP7 (11715501_s_at) / RFU REEP3 (11722064_at) / Fold change /veh REEP3 (11722064_at) / RFU IGLL1 (11728026_x_at) / Fold change /veh IGLL1 (11728026_x_at): dose or concentration left out as unconfirmed
Details: ProbeSet 11717523_x_at; LIST B

## Nc1ccc(-c2cccs2)cc1NC(=O)c1ccc2c(c1)cc(C1CC1)n2CCN1CCOCC1 [ACY-1035]
  Fold change vs veh, TMEM50B: 0.88
